Where a SMILES comes first, the peptide text is derived from it. Bridges are numbered along the chain shown (N, C = ends).
Experiments:
[1] = format: in vitro ADME
Method: FIG. 1B: Schematic representation of HPLC chromatographic analyses of SP-304 samples after incubation with SGF for 0 and 120 min, respectively. The arrows show the elution position of SP-304.
The stability of SP-304 in the presence of simulated gastric fluid (SGF) was determined by biological activity measurements and HPLC analyses (FIGS. 1A & 1B). SP-304 (final concentration of 8.5 mg/ml) was incubated in SGF (Proteose peptone (8.3 g/liter; Difco), D-Glucose (3.5 g/liter; Sigma), NaCl (2.05 g/liter; Sigma), KH2PO4 (0.6 g/liter; Sigma), CaCl2 (0.11 g/liter), KCl (0.37 g/liter; Sigma), Porcine bile (final 1× concentration 0.05 g/liter; Sigma) in PBS, Lysozyme (final 1× concentration 0.10 g/liter; Sigma) in PBS, Pepsin (final 1× concentration 0.0133 g/liter; Sigma) in PBS). SGF was made on the day of the experiment and the pH was adjusted to 2.0±0.1 using HCl or NaOH as necessary. After the pH adjustment, SGF is filter sterilized with 0.22 μm membrane filters. SP-304 (final concentration of 8.5 mg/ml) was incubated in SGF at 37° C. for 0, 15, 30, […] and 120 min, respectively, in triplicate aliquots. Following incubations, samples were snap frozen in dry ice then stored in a −80° C. freezer until assayed in duplicate.
Here, aliquots of the two samples were analyzed by HPLC using a previously developed method for analyzing SP-304 peptide. […]

[2] = Stability in simulated intestinal fluid (SIF), HPLC analysis; format: in vitro ADME
Method: FIG. 2B: HPLC chromatographic spectra of SP-304 samples after incubation with: (A) heat-inactivated SIF for 300 minutes, or (B) SIF for 120 minutes. The arrows show the elution position of SP-304.
FIGS. 7D-1-7D-2: HPLC chromatograms of SP-304 incubated for 0 min in SIF (FIG. 7D-1) and 60 min in SIF (FIG. 7D-2), respectively. The arrows indicate the elution positions of the parent SP-304 peptides. […] These new peptide peaks represent degradation products of SP-304.
FIGS. 7E-1-7-E2: HPLC chromatograms of SP-332 incubated for 0 min in SIF (FIG. 7E-1) and 120 min in SIF (FIG. 7E-2), respectively. The arrows indicate the elution positions of the parent SP-332 peptides.
FIGS. 7F-1-7F-2: HPLC chromatograms of SP-333 incubated for 0 min in SIF (FIG. 7F-1) and 120 min in SIF (FIG. 7F-2), respectively. The arrows indicate the elution positions of the parent SP-333 peptides.
FIGS. 7G-1-7G-5: Incubation of SP-333 with SIF for 2, 6, 12 and 24 hrs. Effect of SIF digestion on the activity of SP-333 in T84 stimulation assay was determined (FIG. 7G-1) and samples were also analyzed by HPLC (FIGS. 7G2-5). The elution positions of the parent peptide and its metabolites are indicated by arrows.
The physical stability of SP-304 peptide exposed to SIF was evaluated by HPLC using the method described for SGF digestion. […]

cynomolgus monkeys [3] = assay: Repeated oral dose toxicity study of SP-304 in cynomolgus monkeys (14 days); format: in vivo
Method: The primary purpose of this experiment was to evaluate the toxicity and pharmacokinetics of a repeated oral dose of SP-304 in cynomolgus monkeys. […] Monkeys returned to normal stool consistency within 24-48 hours following the last dose of SP-304.

cynomolgus monkeys [4] = assay: Repeated daily oral dose for 28 days in cynomolgus monkeys, stool consistency; conditions: cynomolgus monkey, in vivo, 10 mg/kg
Method: FIG. 19: Determination of SP-304 dose that produced diarrhea in monkeys. Two groups of monkeys, male and female, were treated with a single dose of SP-304 per day continuously for 28 days (for each group, 0 and 75 mg/kg, n=5; 1, 10 mg/kg, n=4). Stool consistency and bowel frequency were noted every day. Results are presented as cumulative score for 28 days. The scoring used for stool consistency was as follows: 0: No stool, 1: Normal stool, 2: Loose/mushy stool and 3: Diarrhea/watery stool.
Male (n=4) and female (n=4) monkeys were given a daily dose (1 or 10 or 75 mg/kg body weight) of SP-304 repeatedly for 28 days. Effect of treatment on stool consistency was recorded three times a day. […] Therefore, SP-304 was used at 10 mg/kg body weight in the subsequent experiments.

[5] = system: healthy male and female subjects; conditions: in vivo, po

For `CC(C)C[C@H](NC(=O)[C@@H]1CSSC[C@@H]2NC(=O)[C@H](CC(C)C)NC(=O)[C@H](CCC(=O)O)NC(=O)[C@@H](NC(=O)[C@H](CCC(=O)O)NC(=O)[C@H](CC(=O)O)NC(=O)[C@@H](N)CC(N)=O)CSSC[C@H](NC(=O)[C@H](C)NC(=O)[C@H](C(C)C)NC(=O)[C@H](CC(N)=O)NC(=O)[C@H](C(C)C)NC2=O)C(=O)N[C@@H]([C@@H](C)O)C(=O)NCC(=O)N1)C(=O)O` [SP-304, Asn^1-Asp^2-Glu^3-Cys^4-Glu^5-Leu^6-Cys^7-Val^8-Asn^9-Val^10-Ala^11-Cys^12-Thr^13-Gly^14-Cys^15-Leu^16] (H-NDECELCVNVACTGCL-OH; disulfide 4-12, 7-15), the “major HPLC peak following incubation with SGF” value [1] was “did not change”, the “HPLC analysis after incubation with heat-inactivated SIF” value [2] was “remained intact” and the “time to return to normal stool consistency following the last dose” value (cynomolgus monkeys [3]; cynomolgus monkey, in vivo) was 24 to 48 h. The “tolerability of repeated oral dose” value (cynomolgus monkeys [3]; daily dose of 250 mg for 14 consecutive days, cynomolgus monkeys) was “well tolerated”, the “effect on stool consistency in females” value (cynomolgus monkeys [4]) was “severe diarrhea consistently” and the “most prevalent adverse event: grade I diarrhea (CTCAE)” value [5] was 12.7%.

Reference: patent US10034836B2, “Formulations of guanylate cyclase C agonists and methods of use” (SYNERGY PHARMACEUTICALS, INC., priority 2008, dated 2018)
